# According to the supplement of paper PMC10307832:
# Key:
# Test in all cases: relative viability (nuclei count vs DMSO), 5 days (fraction); higher = more cells survive
# [1] = tested on: A549
# In short: (§1)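 Lung cancer cell lines, seeded in 1536-well plates, were treated the following day by pin tool with a single drug or with five library-drug doses (not always all listed) in √10 steps on top of a fixed anchor-drug dose. Cells were fixed and nuclei stained in one step after 5 days, and nuclei were counted. Relative viability is the nuclei count for treated wells divided by that for vehicle wells, reported as medians of duplicate plates.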
# [2] = tested on: EBC-1
# In short: as §1
# [3] = tested on: Calu-6
# In short: as §1
# [4] = tested on: IA-LM
# In short: as §1
# [5] = tested on: NCI-H1299
# In short: as §1
# [6] = tested on: NCI-H1703
# In short: as §1
# [7] = tested on: ChaGo-K-1
# In short: as §1
Structure (SMILES),relative viability ([1]; first compound 0.04 µM),relative viability ([2]; first compound 0.04 µM),relative viability ([2]; first compound 0.1265 µM),relative viability ([2]; first compound 0.4 µM),relative viability ([2]; first compound 4 µM),relative viability ([3]; first compound 0.04 µM),relative viability ([3]; first compound 0.1265 µM),relative viability ([3]; first compound 0.4 µM),relative viability ([3]; first compound 4 µM),relative viability ([4]; first compound 0.04 µM),relative viability ([4]; first compound 0.1265 µM),relative viability ([4]; first compound 0.4 µM),relative viability ([4]; first compound 4 µM),relative viability ([5]; first compound 0.04 µM),relative viability ([5]; first compound 0.1265 µM),relative viability ([5]; first compound 0.4 µM),relative viability ([5]; first compound 4 µM),relative viability ([6]; first compound 0.04 µM),relative viability ([6]; first compound 0.4 µM),relative viability ([6]; first compound 4 µM),further results
C[C@@H]1CN(CC(=O)Nc2ccc3c(c2)Cc2cccc(-c4cc(=O)cc(N5CCOCC5)o4)c2S3)C[C@H](C)O1 + CS(=O)(=O)CCNCc1ccc(-c2ccc3ncnc(Nc4ccc(OCc5cccc(F)c5)c(Cl)c4)c3c2)o1 [Lapatinib] (partner 2 µM),0.986,0.255,0.219,0.214,0.208,1.09,1.06,0.96,0.775,0.951,0.777,0.956,0.339,1.01,0.956,1.01,0.816,1.24,0.955,0.688,relative viability ([1]; first compound 0.1265 µM): 0.917; relative viability ([1]; first compound 0.4 µM): 1.14; relative viability ([1]; first compound 4 µM): 0.831; relative viability ([6]; first compound 0.1265 µM): 1.1
Clc1ccc(Nc2nnc(Cc3ccncc3)c3ccccc23)cc1 [Vatalanib] + Cc1nc(NC(=O)N2CCC[C@H]2C(N)=O)sc1-c1ccnc(C(C)(C)C(F)(F)F)c1 [Alpelisib] (partner 2 µM),0.795,0.842,0.698,0.82,0.852,1.09,0.95,1.08,0.938,0.747,0.754,0.715,0.918,1.02,1.08,1.05,1.04,0.327,0.395,0.212,relative viability ([1]; first compound 0.1265 µM): 0.758; relative viability ([1]; first compound 0.4 µM): 0.922; relative viability ([1]; first compound 1.265 µM): 0.694; relative viability ([1]; first compound 4 µM): 0.707; relative viability ([2]; first compound 1.265 µM): 0.856; relative viability ([3]; first compound 1.265 µM): 0.958; relative viability ([4]; first compound 1.265 µM): 0.797; relative viability ([5]; first compound 1.265 µM): 1.02; relative viability ([6]; first compound 1.265 µM): 0.235
CC(C)Oc1cc(Nc2nc(N[C@@H](C)c3ccc(F)cn3)ncc2Cl)n[nH]1 [AZ23] + Cc1nc(NC(=O)N2CCC[C@H]2C(N)=O)sc1-c1ccnc(C(C)(C)C(F)(F)F)c1 [Alpelisib] (partner 2 µM),,,,,,,,,,,,,,,,,,,,,relative viability ([1]; first compound 0.01 µM): 0.738; relative viability ([1]; first compound 0.03162 µM): 0.758; relative viability ([1]; first compound 0.3162 µM): 0.716; relative viability ([2]; first compound 0.01 µM): 0.826; relative viability ([2]; first compound 0.03162 µM): 0.869; relative viability ([2]; first compound 0.3162 µM): 0.859; relative viability ([3]; first compound 0.03162 µM): 1.12; relative viability ([3]; first compound 0.3162 µM): 1.11; relative viability ([4]; first compound 0.01 µM): 0.729; relative viability ([4]; first compound 0.03162 µM): 0.98; relative viability ([4]; first compound 0.3162 µM): 0.943; relative viability ([5]; first compound 0.01 µM): 1.16; relative viability ([5]; first compound 0.03162 µM): 1.09; relative viability ([5]; first compound 0.3162 µM): 1.23; relative viability ([6]; first compound 0.03162 µM): 0.434; relative viability ([6]; first compound 0.3162 µM): 0.308
COc1cc(N2CCC(C(N)=O)CC2)ccc1Nc1nc(N)c(Cl)c(Nc2ccccc2S(=O)(=O)C(C)C)n1 [HG-5-88-01] + CC(C)C[C@H](NC(=O)[C@H](Cc1ccccc1)NC(=O)c1cnccn1)B(O)O [Bortezomib] (partner 0.002 µM),,0.567,0.624,0.549,0.241,1.03,0.998,0.978,0.841,0.835,0.849,0.724,0.666,1.02,1.02,1.03,1.04,0.263,0.384,0.239,relative viability ([7]; first compound 0.04 µM): 1.11; relative viability ([7]; first compound 0.1265 µM): 0.983; relative viability ([7]; first compound 0.4 µM): 0.976; relative viability ([7]; first compound 1.265 µM): 1.02; relative viability ([7]; first compound 4 µM): 0.785; relative viability ([2]; first compound 1.265 µM): 0.474; relative viability ([3]; first compound 1.265 µM): 0.925; relative viability ([4]; first compound 1.265 µM): 0.812; relative viability ([5]; first compound 1.265 µM): 1.04; relative viability ([6]; first compound 0.1265 µM): 0.42; relative viability ([6]; first compound 1.265 µM): 0.312
